From ChEMBL document CHEMBL5576052, “Design, synthesis, and biological evaluation of new bis-benzylisoquinoline-based analogues as potential neuromuscular blocking agents” (Bioorg Med Chem Lett, 2024)

Experiments:
Assay type in all cases: functional
[1] = tested on: Oryctolagus cuniculus; experiment: Neuromuscular blocking in rabbit model of propofol-induced anesthesia assessed as onset time at 27.27 nmol/kg by train-of-four response method
[2] = tested on: Oryctolagus cuniculus; experiment: Neuromuscular blocking in rabbit model of propofol-induced anesthesia assessed as maximal blockade at 27.27 nmol/kg by train-of-four response method relative to control
[3] = tested on: Oryctolagus cuniculus; experiment: Neuromuscular blocking in rabbit model of propofol-induced anesthesia assessed as duration of time for maximal blockade at 27.27 nmol/kg by train-of-four response method
[4] = tested on: Oryctolagus cuniculus; experiment: Neuromuscular blocking in rabbit model of propofol-induced anesthesia assessed as effective blocking time by measuring duration from administration to 25 percent recovery at 27.27 nmol/kg by train-of-four response method
[5] = tested on: Oryctolagus cuniculus; experiment: Neuromuscular blocking in rabbit model of propofol-induced anesthesia assessed as time duration of 25 to 75 percent recovery indices at 27.27 nmol/kg by train-of-four response method
[6] = tested on: Oryctolagus cuniculus; experiment: Neuromuscular blocking in rabbit model of propofol-induced anesthesia assessed as time duration of 25 to 90 percent recovery indices at 27.27 nmol/kg by train-of-four response method
[7] = tested on: Oryctolagus cuniculus; experiment: Neuromuscular blocking in rabbit model of propofol-induced anesthesia assessed as onset time at 272.7 nmol/kg by train-of-four response method
[8] = tested on: Oryctolagus cuniculus; experiment: Neuromuscular blocking in rabbit model of propofol-induced anesthesia assessed as maximal blockade at 272.7 nmol/kg by train-of-four response method relative to control
[9] = tested on: Oryctolagus cuniculus; experiment: Neuromuscular blocking in rabbit model of propofol-induced anesthesia assessed as duration of time for maximal blockade at 272.7 nmol/kg by train-of-four response method
[10] = tested on: Oryctolagus cuniculus; experiment: Neuromuscular blocking in rabbit model of propofol-induced anesthesia assessed as effective blocking time by measuring duration from administration to 25 percent recovery at 272.7 nmol/kg by train-of-four response method
[11] = tested on: Oryctolagus cuniculus; experiment: Neuromuscular blocking in rabbit model of propofol-induced anesthesia assessed as time duration of 25 to 75 percent recovery indices at 272.7 nmol/kg by train-of-four response method
[12] = tested on: Oryctolagus cuniculus; experiment: Neuromuscular blocking in rabbit model of propofol-induced anesthesia assessed as time duration of 25 to 90 percent recovery indices at 272.7 nmol/kg by train-of-four response method
[13] = tested on: Oryctolagus cuniculus; experiment: Neuromuscular blocking in rabbit model of propofol-induced anesthesia assessed as time duration of 25 to 75 percent recovery indices at 0.06 mg/kg of inductive dose with continuous infusion of compound measured for 0.5 hrs by train-of-four response method
[14] = tested on: Oryctolagus cuniculus; experiment: Neuromuscular blocking in rabbit model of propofol-induced anesthesia assessed as time duration of 75 to 90 percent recovery indices at 0.06 mg/kg of inductive dose with continuous infusion of compound measured for 0.5 hrs by train-of-four response method
[15] = tested on: Oryctolagus cuniculus; experiment: Neuromuscular blocking in rabbit model of propofol-induced anesthesia assessed as time duration of 25 to 90 percent recovery indices at 0.06 mg/kg of inductive dose with continuous infusion of compound measured for 0.5 hrs by train-of-four response method
[16] = tested on: Oryctolagus cuniculus; experiment: Neuromuscular blocking in rabbit model of propofol-induced anesthesia assessed as time duration of 25 to 75 percent recovery indices at 0.06 mg/kg of inductive dose with continuous infusion of compound measured for 1 hr by train-of-four response method
[17] = tested on: Oryctolagus cuniculus; experiment: Neuromuscular blocking in rabbit model of propofol-induced anesthesia assessed as time duration of 75 to 90 percent recovery indices at 0.06 mg/kg of inductive dose with continuous infusion of compound measured for 1 hr by train-of-four response method
[18] = tested on: Oryctolagus cuniculus; experiment: Neuromuscular blocking in rabbit model of propofol-induced anesthesia assessed as time duration of 25 to 90 percent recovery indices at 0.06 mg/kg of inductive dose with continuous infusion of compound measured for 1 hr by train-of-four response method
[19] = tested on: Oryctolagus cuniculus; experiment: Neuromuscular blocking in rabbit model of propofol-induced anesthesia assessed as time duration of 25 to 75 percent recovery indices at 0.06 mg/kg of inductive dose with continuous infusion of compound measured for 2 hrs by train-of-four response method
[20] = tested on: Oryctolagus cuniculus; experiment: Neuromuscular blocking in rabbit model of propofol-induced anesthesia assessed as time duration of 75 to 90 percent recovery indices at 0.06 mg/kg of inductive dose with continuous infusion of compound measured for 2 hrs by train-of-four response method
[21] = tested on: Oryctolagus cuniculus; experiment: Neuromuscular blocking in rabbit model of propofol-induced anesthesia assessed as time duration of 25 to 90 percent recovery indices at 0.06 mg/kg of inductive dose with continuous infusion of compound measured for 2 hrs by train-of-four response method
[22] = tested on: Oryctolagus cuniculus; experiment: Neuromuscular blocking in rabbit model of propofol-induced anesthesia assessed as time duration of 25 to 75 percent recovery indices at 0.33 mg/kg of inductive dose with continuous infusion of compound measured for 0.5 hrs by train-of-four response method
[23] = tested on: Oryctolagus cuniculus; experiment: Neuromuscular blocking in rabbit model of propofol-induced anesthesia assessed as time duration of 75 to 90 percent recovery indices at 0.33 mg/kg of inductive dose with continuous infusion of compound measured for 0.5 hrs by train-of-four response method
[24] = tested on: Oryctolagus cuniculus; experiment: Neuromuscular blocking in rabbit model of propofol-induced anesthesia assessed as time duration of 25 to 90 percent recovery indices at 0.33 mg/kg of inductive dose with continuous infusion of compound measured for 0.5 hrs by train-of-four response method

SMILES	Time [1] [min]	Emax at 0.02727 µmol/kg [2] [%]	Time [3] [min]	Time [4] [min]	Time [5] [min]	Time [6] [min]	Time [7] [min]	Emax at 0.2727 µmol/kg [8] [%]	Time [9] [min]	Time [10] [min]	Time [11] [min]	Time [12] [min]	Time [13] [min]	Time [14] [min]	Time [15] [min]	Time [16] [min]	Time [17] [min]	Time [18] [min]	Time [19] [min]	Time [20] [min]	other results
COc1cc2c(cc1OC)[C@@H](Cc1cc(OC)c(OC)c(OC)c1)[N@+](C)(CCCOC(=O)CC/C=C/CCC(=O)OCCC[N@+]1(C)CCc3cc(OC)c(OC)cc3[C@H]1Cc1cc(OC)c(OC)c(OC)c1)CC2.[Cl-].[Cl-]	1.88	100	4.25	5.58	9.22	15.08	0.67	100	14.67	19.58	11.25	13.92	7.13	3.6	10.73	6.96	2.67	9.63	4.58	3.17	Time [21]: 7.75 min
COc1cc2c(cc1OC)[C@@H](Cc1cc(OC)c(OC)c(OC)c1)[N+](C)(CCC(=O)OC/C=C\COC(=O)CC[N+]1(C)CCc3cc(OC)c(OC)cc3[C@H]1Cc1cc(OC)c(OC)c(OC)c1)CC2.O=S(=O)([O-])c1ccccc1.O=S(=O)([O-])c1ccccc1 (stereo partly drawn)							1.67	100	8.25	11.83	7.5	10.25									Time [22]: 8 min; Time [23]: 3.17 min; Time [24]: 11.17 min
COc1cc2c(cc1OC)[C@@H](Cc1cc(OC)c(OC)c(OC)c1)[N@@+](C)(CCCOC(=O)CC/C=C/CCC(=O)OCCC[N@+]1(C)CCc3cc(OC)c(OC)cc3[C@H]1Cc1cc(OC)c(OC)c(OC)c1)CC2.[Cl-].[Cl-] (mixture of isomers)	3.58	80	1.92		4.92	8.92	0.83	100	21.42	24.5	10.5	13.42	6.9	4.2	11.1	7.08	5.33	12.42			
COc1cc2c(cc1OC)[C@@H](Cc1cc(OC)c(OC)c(OC)c1)[N+](C)(CCCOC(=O)CC/C=C/CCC(=O)OCCC[N+]1(C)CCc3cc(OC)c(OC)cc3[C@H]1Cc1cc(OC)c(OC)c(OC)c1)CC2.[Cl-].[Cl-] (stereo partly drawn) [MIVACURIUM CHLORIDE]	1.58	100	4.42	7.92	7.75	11.42	0.79	100	15.79	18.57	6.54	9.71	8	3.5	11.5	8.5	3.29	11.79	4.92	4.83	Time [21]: 9 min
